Data on 1 compound can be found in ChEMBL document CHEMBL6153084, “The development of α, β-unsaturated lactam-based andrographolide derivatives as anti-gastric cancer agents with the ability of inhibiting the ERK/c-Fos/Jun pathway” (Eur J Med Chem, 2025).

Test [1] concerns MGC-803. Nature of the test: Antiproliferative activity against human MGC-803 cells assessed as inhibition of cell growth incubated for 24 to 48 hrs by MTT assay. In kind it is functional, cell-based. A general note: Tetrazolium dyes change colour on reduction, which living cells bring about.
For test [2], the system named is MGC-803. Nature of the test: Induction of cell cycle arrest in human MGC-803 cells assessed as accumulation of cells at G2/M phase incubated for 48 hrs by PI staining based flow cytometry analysis. The note with it: dose 0.25-1 µM. The test is classed as functional. Background: In flow cytometry, cells or beads pass a laser one at a time.
Test [3] has as its system MGC-803. Nature of the test: Induction of apoptosis in human MGC-803 cells assessed as viable cells at 4 uM incubated for 48 hrs by Annexin V-FITC/PI staining based flow cytometry analysis (reference value: 93.9%). In kind it is functional. Conditions: read-out: Activity.
For test [4], the system named is MGC-803. The test is described as follows: Induction of apoptosis in human MGC-803 cells assessed as upregulation of cleaved PARP expression at 1 to 4 uM incubated for 24 hrs by Western blot analysis. The test is classed as functional, cell-based. Conditions: dose 1-4 µM. A general note: In western blotting, separated proteins are transferred to a membrane and probed.

The test system of test [5] is MGC-803. Nature of the test: Downregulation of alpha-SMA expression in human MGC-803 cells at 1 to 4 uM incubated for 48 hrs by Western blot analysis. The note with it: dose 1-4 µM. The test is classed as functional, cell-based.
Test [6] deals with MGC-803. Nature of the test: Inhibition of ERK phosphorylation in human MGC-803 cells at 4 uM measured after 24 hrs by Western blot analysis. In kind it is cell-based.
Test [7] relates to MGC-803. The test is described as follows: Induction of apoptosis in human MGC-803 cells assessed as downregulation of […] expression at 1 to 4 uM incubated for 24 hrs by Western blot analysis. The test is classed as functional, cell-based. Conditions: dose 1-4 µM.
In test [8] the test system is MGC-803. The test is described as follows: Downregulation of c-FOS level in human MGC-803 cells at 4 uM incubated for 24 hrs by immunoblotting analysis. In kind it is functional, cell-based.
The test system of test [9] is MGC-803. Nature of the test: Induction of apoptosis in human MGC-803 cells assessed as late apoptotic cells at 2 uM incubated for 48 hrs by Annexin V-FITC/PI staining based flow cytometry analysis (reference value: 0.98%). The test is classed as functional.
Test [10] relates to MGC-803. The test is described as follows: Downregulation of ACSS2 mRNA level in human MGC-803 cells at 4 uM incubated for 24 hrs by RT-qPCR analysis. In kind it is functional, cell-based.
Test [11] has as its system MGC-803. Nature of the test: Inhibition of cell migration in human MGC-803 cells incubated for 24 hrs by microscopic analysis. The note with it: dose <= 1.0 µM. The test is classed as functional, cell-based.
For test [12], the system named is MGC-803. The test is described as follows: Induction of apoptosis in human MGC-803 cells assessed as late apoptotic cells at 4 uM incubated for 48 hrs by Annexin V-FITC/PI staining based flow cytometry analysis (reference value: 0.98%). In kind it is functional.
Test [13] relates to MGC-803. The test is described as follows: Antitumor activity against human MGC-803 cells xenografted in BALB/c mouse assessed as inhibition of tumor growth at 50 mg/kg, IG administered for 14 days. The test is classed as functional. Conditions: MGC-803, po, 336 h, time 14 day, read-out: TGI.
The next test deals with ECa-109 cell line. The test is described as follows: Antiproliferative activity against human Eca-109 cells assessed as inhibition of cell growth incubated for 24 to 72 hrs by MTT assay. In kind it is functional, cell-based. Conditions: time 24-72 hrs.
The test system of test [14] is MGC-803. The test is described as follows: Antiproliferative activity against human MGC-803 cells assessed as inhibition of cell growth upto 2.5 uM by MTT assay. The test is classed as functional, cell-based. The note with it: time 24-72 hrs.
The subject of test [15] is MGC-803. Nature of the test: Lipid-lowering activity in human MGC-803 cells assessed as reduction in lipid size by Oil Red O staining based analysis. In kind it is functional, cell-based. Conditions: dose 1-4 µM.

pIC50: −log10 of the molar value. Calls of active or inactive are those of the source. The rule behind the calls is not given here.

Turning to `C=C1CC[C@@H]2[C@](C)(CO)[C@H](O)CC[C@@]2(C)[C@@H]1/C=C/C1=CC(=C/c2ccc(C)cc2)/NC1=O`, the pIC50 (as a rule, −log10 of the IC50, conventionally taken in molar units) in the test with MGC-803 [1] is 5.45. For the same compound, the Activity entry is “Dose-dependent-effect” in the test on MGC-803 [2]; 41.5% in the test on MGC-803 [9]; 47.5% with MGC-803 [12]; “Time-dependent-effect” in the test with MGC-803 [14]; “Dose-dependent-effect” in the test on MGC-803 [15]. Also, the viability at 4 µM in the test with MGC-803 [3] came to 16%. Also, the result in the test on MGC-803 [4], with MGC-803 [5], with MGC-803 [7], in the test on MGC-803 [8] and in the test on MGC-803 [10] was Active. Also, the inhibition result in the test on MGC-803 [6] is “Active”. Further, the inhibition entry in the test on MGC-803 [11] was “Dose-dependent-effect”. The inhibition in vivo at 50 mg/kg in the test with MGC-803 [13] was determined as 50%. Besides, in the test on ECa-109 cell line, the result was inactive.
